Measurements from patent US20200215158A1, “Multifunctional, Self-Assembled Aptamer-Nanomedicine Compositions and Methods for treating Cancer” (The Methodist Hospital, priority 2018, published 2020).

How the values were obtained:
[1] = Body weight of tumor-bearing mice during treatment; assay type: in vivo, mouse
Method: (§1) The body weight of each mouse was also measured weekly to monitor potential drug toxicity. Mice were euthanized when tumor volume exceeded 2,000 mm^3.

[2] = system: Karpas 299 xenograft tumor; test: Anticancer efficacy of Apt-NMed in vivo; design: species or system mouse; details: post first dose treatment
Method: Mice NOD.Cg-Prkdc^scid Il2rg^tmlWjl/SzJ (NOD SCID), 4-6-weeks old, were used to develop xenograft tumor models by subcutaneously injecting 6×10^6 cultured CD30-expressing lymphoma cells (Karpas 299) (in 100 μL of PBS buffer) into mice on the back. Dorsal tumor nodules were allowed to grow to a volume of ˜4 mm^3 before treatment initiation. Tumor-bearing mice were randomly assigned to three groups (with six mice in each group) as follows: (i) group administered with 0.25 mg Apt-NMed carrying […] to each mouse; (ii) group administered 20 μg free DOX to each mouse, and (iii) untreated group. Drugs were injected through tail veins every other day, and the treatment was continued for four weeks. Tumor length and width were measured with calipers weekly for each mouse. Tumor volume was calculated using the following equation:
Tumor Volume=Length×Width^2×0.52
as §1

COc1cccc2c1C(=O)c1c(O)c3c(c(O)c1C2=O)C[C@@](O)(C(=O)CO)C[C@@H]3O[C@H]1C[C@H](N)[C@H](O)[C@H](C)O1 [free DOX, doxorubicin]
body weight loss ([1]; day 35, 20 μg/mouse): 20%
change in mice body weight ([1]; during treatment): considerable decrease
day at which the last mouse died [2]: 38 days
